Test results reported in ChEMBL document CHEMBL1201862, “PubChem BioAssay data set” (2004).
Calls of active or inactive are those of the source.

How the values were obtained:
Cytochrome P450 2C9 = Cytochrome P450 2C9 (Homo sapiens, UniProt P11712)
Cytochrome P450 2C19 = Cytochrome P450 2C19 (Homo sapiens, UniProt P33261); test: Cytochrome panel assay with activity outcomes. Panel member name: p450-cyp2c19 Compounds with AC50 equal or less than 10 uM are considered active; format: functional
Cytochrome P450 3A4 = Cytochrome P450 3A4 (Homo sapiens, UniProt P08684);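 note: CYP3A4 tested as one member of a cytochrome P450 panel screen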
[1] = inhibitors of intracellular T. cruzi replication, confirmation, NIH3T3 host cells, beta-gal luminescence (AID 2044); format: functional, cell-based;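 note: intracellular parasites grown in NIH/3T3 mouse fibroblasts as host cells; luminescent beta-galactosidase reporter signal from transgenic T. cruzi replicating inside host cells; inhibitors lower the luminescence signal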
CHO = test: cytotoxicity in TLR9-MyD88 CHO cells, dose response, cytotoxicity control for TLR9-MyD88 binding inhibitor project, cell-based, luminescence (AID 588339); format: functional, hamster; settings: Cricetulus griseus;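 note: CHO cells stably coexpressing TLR9 and MyD88 fusions from primary screen; compound exposure lasted 48 hours before viability readout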
[2] = target: T1, Microphthalmia-associated transcription factor (Homo sapiens, UniProt O75030); test: TRPM1 promoter luciferase signal decrease, dose response, MITF inhibitor project, cell-based, SK-MEL-5, cherry-picked, set 3 (AID 493073); format: functional
T1 sequence (O75030 whole entry): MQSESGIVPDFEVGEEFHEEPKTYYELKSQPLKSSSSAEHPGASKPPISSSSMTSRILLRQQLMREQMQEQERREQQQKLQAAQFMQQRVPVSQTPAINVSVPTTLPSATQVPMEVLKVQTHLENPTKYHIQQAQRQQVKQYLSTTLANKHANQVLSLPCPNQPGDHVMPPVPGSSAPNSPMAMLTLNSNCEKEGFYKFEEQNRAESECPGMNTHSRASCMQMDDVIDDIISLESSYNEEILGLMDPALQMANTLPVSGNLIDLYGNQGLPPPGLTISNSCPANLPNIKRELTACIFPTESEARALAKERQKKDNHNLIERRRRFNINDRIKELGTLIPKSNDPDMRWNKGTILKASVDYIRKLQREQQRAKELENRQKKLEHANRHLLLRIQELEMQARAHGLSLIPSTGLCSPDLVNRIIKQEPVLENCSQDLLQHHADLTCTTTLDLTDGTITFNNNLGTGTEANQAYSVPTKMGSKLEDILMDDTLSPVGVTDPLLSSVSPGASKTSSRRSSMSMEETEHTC

Beta-galactosidase = Beta-galactosidase (Escherichia coli, UniProt Q8VNN2); test: PubChem AID 485352; format: functional
[3] = Fluorescence-based cell-based high throughput dose response assay for inhibitors of the interaction of nucleotide-binding oligomerization domain containing 2 (NOD2) and the receptor-interacting serine-threonine kinase 2 (RIPK2).; format: functional; settings: Homo sapiens
[4] = target: T2, Type-1 angiotensin II receptor (Homo sapiens, UniProt P30556); test: AT1 receptor antagonists, dose response, selectivity assay for APJ receptor antagonist project, cell-based, uHTS hits (AID 463214); format: functional;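 note: antagonist potency against angiotensin II stimulated AT1 response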
T2 sequence (P30556 whole entry): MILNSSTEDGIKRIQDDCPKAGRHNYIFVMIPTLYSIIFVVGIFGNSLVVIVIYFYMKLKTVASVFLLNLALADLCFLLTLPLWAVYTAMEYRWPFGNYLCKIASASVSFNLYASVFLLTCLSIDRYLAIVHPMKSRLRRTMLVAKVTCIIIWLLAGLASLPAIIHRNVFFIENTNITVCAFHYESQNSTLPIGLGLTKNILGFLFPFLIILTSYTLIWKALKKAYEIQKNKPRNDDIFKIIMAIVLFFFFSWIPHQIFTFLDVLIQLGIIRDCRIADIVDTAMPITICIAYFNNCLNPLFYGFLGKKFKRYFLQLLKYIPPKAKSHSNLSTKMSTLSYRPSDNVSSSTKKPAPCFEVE

[5] = cytotoxicity toward NIH3T3 fibroblasts, dose response, counter-screen, cell-based, ATP luminescence, mouse fibroblasts (AID 2010); format: functional;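 note: cells exposed to compound for about 90 hours before reading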
Beta Lactamase = Beta Lactamase (Pseudomonas aeruginosa, UniProt Q932Y6); test: beta-lactamase reporter inhibitor potency, dose response, artefact control for TLR9-MyD88 binding inhibitor project, BLA reporter cells, FRET fluorescence (AID 588341); format: cell-based;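 note: cell based assay in CHO-K1 cells stably expressing beta-lactamase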
[6] = Luminescence Cell-Based Dose Retest to Confirm Inhibitors of Cancer Stem Cells. [Related pubchem assays (depositor defined):AID2717, AID2721]; format: functional; settings: Homo sapiens
INS1 = test: beta cell apoptosis inhibitors, cytokine rescue, dose response, luminescence, retest (AID 449756); format: functional, cell-based; settings: Rattus norvegicus;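 note: cell death triggered by IL-1 beta plus TNF-alpha plus IFN-gamma mixture; protective hits raise ATP signal compared with cytokine alone wells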
Vero [7] = test: cells; format: functional; settings: Chlorocebus sabaeus
Vero [8] = test: cells; format: functional, cell-based; settings: Chlorocebus sabaeus
CAAX prenyl protease 2 = target: T3, CAAX prenyl protease 2 (Homo sapiens, UniProt Q9Y256); test: human Rce1 protease inhibitors, dose response, biochemical, yeast membranes, quenched-peptide fluorescence, cherry-pick (AID 588849)
T3 sequence (Q9Y256 whole entry): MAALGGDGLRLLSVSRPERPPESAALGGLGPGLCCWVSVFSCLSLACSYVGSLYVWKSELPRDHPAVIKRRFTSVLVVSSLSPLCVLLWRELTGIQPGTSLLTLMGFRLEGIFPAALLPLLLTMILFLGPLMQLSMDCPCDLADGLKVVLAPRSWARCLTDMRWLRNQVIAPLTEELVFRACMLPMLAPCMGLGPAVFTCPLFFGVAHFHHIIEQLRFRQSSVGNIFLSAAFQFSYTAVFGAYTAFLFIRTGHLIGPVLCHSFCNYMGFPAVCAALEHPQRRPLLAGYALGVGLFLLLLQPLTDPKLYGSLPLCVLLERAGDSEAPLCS

[9] = target: Voltage-gated inwardly rectifying potassium channel KCNH2 (Homo sapiens, UniProt Q12809); settings: Potency;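 note: confirmatory quantitative high-throughput screen measuring inhibition of hERG channel activity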
[10] = target: T4, Corticotropin-releasing factor receptor 2/Corticotropin-releasing factor-binding protein (Homo sapiens, UniProt P24387+Q13324); test: Dose Response confirmation of uHTS hits for small molecule antagonists of the CRF-binding protein and CRF-R2 receptor complex.; format: functional; settings: read-out: IC50_Mean
T4 sequence (Q13324 whole entry): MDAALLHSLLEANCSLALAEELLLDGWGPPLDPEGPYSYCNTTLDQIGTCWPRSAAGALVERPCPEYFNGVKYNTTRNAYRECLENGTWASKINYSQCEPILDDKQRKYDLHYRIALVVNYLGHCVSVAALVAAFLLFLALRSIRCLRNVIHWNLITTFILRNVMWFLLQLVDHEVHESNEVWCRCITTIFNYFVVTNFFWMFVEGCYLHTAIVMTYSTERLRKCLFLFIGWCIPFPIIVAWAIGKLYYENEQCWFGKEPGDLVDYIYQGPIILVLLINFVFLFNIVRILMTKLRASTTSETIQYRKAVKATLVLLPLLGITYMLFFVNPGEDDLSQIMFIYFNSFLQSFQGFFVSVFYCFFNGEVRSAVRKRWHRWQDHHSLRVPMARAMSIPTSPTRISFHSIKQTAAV
T4 sequence (P24387 whole entry): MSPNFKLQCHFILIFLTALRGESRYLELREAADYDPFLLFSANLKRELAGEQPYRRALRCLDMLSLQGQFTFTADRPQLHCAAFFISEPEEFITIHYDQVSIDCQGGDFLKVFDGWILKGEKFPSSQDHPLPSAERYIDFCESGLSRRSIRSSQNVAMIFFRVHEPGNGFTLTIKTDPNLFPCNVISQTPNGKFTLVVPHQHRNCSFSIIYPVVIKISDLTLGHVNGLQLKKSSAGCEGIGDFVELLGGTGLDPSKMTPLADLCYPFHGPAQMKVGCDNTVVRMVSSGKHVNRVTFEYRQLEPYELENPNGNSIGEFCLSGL

[11] = target: T4, Corticotropin-releasing factor receptor 2/Corticotropin-releasing factor-binding protein; test: activators of CRF receptor 2 with binding protein – uHTS hits, confirmation (AID 602473); format: functional; settings: read-out: EC50_Mean
[12] = growth induction of Burl-1 ts yeast mutant, dose response, counter-screen for SUMOylation pathway inhibitor project, whole organism, S. cerevisiae, luminescence (AID 463199); format: functional
[13] = cytotoxicity in HEK-293T cells, dose response, cytotoxicity control for TCR NF-kB inhibitor project, luminescence, T-cell screen hits (AID 489026); format: functional, cell-based;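 note: cells exposed to compound about 14 hours before the viability readout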
[14] = Shn3 3'UTR reporter inhibitors, dose response, cell-based, Clone20 osteoblasts, firefly luciferase, cherry-picked (AID 624132); format: functional;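 note: firefly luciferase luminescence from reporter carrying the Shn3 3'UTR in osteoblasts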
[15] = control 3'UTR Renilla luciferase suppression, dose response, counter-screen for Shn3 inhibitor project, cell-based, Clone20-Shn3RL, cherry-picked (AID 624133); format: functional
[16] = cytotoxicity in MIN6 insulinoma cells, dose response, cytotoxicity control, cell-based, mouse insulinoma (AID 2122); format: functional;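 note: confirmatory high-throughput counterscreen run to flag cytotoxic compounds; mouse MIN-6 beta cells carrying an insulin promoter eGFP reporter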
[17] = insulin promoter down-regulators in MIN6 cells, imaging, high-content screening, mouse beta cells (AID 1628); format: functional
[18] = HepG2 cell cytotoxicity, dose response, cytotoxicity control for Shn3 inhibitor project, CellTiter-Glo, cherry-picked (AID 624134); format: functional, cell-based
[19] = target: T5, Short transient receptor potential channel 4 (Mus musculus, UniProt Q9QUQ5); test: mouse TRPC4 channel activators, dose response, cell-based, HEK293 TRPC4/mu-opioid, Fluo-4 calcium (AID 434937); format: functional
T5 sequence (Q9QUQ5 whole entry): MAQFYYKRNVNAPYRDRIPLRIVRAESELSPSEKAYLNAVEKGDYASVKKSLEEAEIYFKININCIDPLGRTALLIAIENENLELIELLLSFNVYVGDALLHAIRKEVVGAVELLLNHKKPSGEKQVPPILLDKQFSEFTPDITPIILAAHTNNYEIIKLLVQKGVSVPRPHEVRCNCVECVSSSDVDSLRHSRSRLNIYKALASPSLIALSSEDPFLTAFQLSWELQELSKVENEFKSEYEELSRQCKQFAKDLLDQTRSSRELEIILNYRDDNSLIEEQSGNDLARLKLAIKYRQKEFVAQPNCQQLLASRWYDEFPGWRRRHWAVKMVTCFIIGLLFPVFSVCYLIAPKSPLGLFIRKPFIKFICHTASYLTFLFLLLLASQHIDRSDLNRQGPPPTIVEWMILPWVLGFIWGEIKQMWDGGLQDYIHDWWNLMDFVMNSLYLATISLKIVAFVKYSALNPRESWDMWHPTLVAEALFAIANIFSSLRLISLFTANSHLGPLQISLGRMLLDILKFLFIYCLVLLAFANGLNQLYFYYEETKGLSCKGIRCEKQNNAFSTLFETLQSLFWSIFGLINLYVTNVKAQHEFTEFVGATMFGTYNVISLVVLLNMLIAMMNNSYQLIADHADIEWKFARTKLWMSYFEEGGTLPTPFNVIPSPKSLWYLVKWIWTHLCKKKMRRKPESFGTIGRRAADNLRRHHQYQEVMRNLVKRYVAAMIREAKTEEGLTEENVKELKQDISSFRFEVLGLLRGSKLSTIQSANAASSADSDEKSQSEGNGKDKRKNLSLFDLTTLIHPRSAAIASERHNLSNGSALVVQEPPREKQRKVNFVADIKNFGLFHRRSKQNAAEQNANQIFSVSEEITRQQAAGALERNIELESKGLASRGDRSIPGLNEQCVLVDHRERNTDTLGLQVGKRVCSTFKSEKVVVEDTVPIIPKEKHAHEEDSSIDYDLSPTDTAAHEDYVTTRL

Chain of Beta-galactosidase (Q8VNN2 whole entry, the tested form may be a part): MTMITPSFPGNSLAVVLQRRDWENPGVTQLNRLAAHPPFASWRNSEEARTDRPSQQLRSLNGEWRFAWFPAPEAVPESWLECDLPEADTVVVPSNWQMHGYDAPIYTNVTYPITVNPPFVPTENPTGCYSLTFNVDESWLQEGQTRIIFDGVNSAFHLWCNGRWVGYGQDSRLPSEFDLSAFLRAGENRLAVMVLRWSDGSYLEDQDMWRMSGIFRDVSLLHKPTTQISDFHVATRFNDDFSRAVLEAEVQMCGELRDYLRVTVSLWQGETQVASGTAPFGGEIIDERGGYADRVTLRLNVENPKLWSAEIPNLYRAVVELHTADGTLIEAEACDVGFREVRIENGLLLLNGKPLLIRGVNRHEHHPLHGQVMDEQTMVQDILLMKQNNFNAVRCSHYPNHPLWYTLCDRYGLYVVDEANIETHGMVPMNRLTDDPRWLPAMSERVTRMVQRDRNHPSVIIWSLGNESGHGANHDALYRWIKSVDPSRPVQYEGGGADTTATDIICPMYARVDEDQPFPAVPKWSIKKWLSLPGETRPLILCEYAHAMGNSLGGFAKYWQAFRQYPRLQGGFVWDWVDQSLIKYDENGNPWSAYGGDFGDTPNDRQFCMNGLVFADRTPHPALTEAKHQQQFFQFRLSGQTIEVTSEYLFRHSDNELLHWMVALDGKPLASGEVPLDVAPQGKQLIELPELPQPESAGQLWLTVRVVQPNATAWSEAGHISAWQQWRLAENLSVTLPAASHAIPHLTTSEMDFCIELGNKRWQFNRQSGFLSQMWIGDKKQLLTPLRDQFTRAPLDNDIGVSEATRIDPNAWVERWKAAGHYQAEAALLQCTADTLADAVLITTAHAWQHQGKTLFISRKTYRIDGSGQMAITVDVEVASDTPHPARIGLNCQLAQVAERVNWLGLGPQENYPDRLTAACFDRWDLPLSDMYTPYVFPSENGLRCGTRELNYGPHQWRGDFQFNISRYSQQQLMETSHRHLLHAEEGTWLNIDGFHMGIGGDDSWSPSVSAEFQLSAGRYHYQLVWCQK
Chain of Voltage-gated inwardly rectifying potassium channel KCNH2 (Q12809 whole entry): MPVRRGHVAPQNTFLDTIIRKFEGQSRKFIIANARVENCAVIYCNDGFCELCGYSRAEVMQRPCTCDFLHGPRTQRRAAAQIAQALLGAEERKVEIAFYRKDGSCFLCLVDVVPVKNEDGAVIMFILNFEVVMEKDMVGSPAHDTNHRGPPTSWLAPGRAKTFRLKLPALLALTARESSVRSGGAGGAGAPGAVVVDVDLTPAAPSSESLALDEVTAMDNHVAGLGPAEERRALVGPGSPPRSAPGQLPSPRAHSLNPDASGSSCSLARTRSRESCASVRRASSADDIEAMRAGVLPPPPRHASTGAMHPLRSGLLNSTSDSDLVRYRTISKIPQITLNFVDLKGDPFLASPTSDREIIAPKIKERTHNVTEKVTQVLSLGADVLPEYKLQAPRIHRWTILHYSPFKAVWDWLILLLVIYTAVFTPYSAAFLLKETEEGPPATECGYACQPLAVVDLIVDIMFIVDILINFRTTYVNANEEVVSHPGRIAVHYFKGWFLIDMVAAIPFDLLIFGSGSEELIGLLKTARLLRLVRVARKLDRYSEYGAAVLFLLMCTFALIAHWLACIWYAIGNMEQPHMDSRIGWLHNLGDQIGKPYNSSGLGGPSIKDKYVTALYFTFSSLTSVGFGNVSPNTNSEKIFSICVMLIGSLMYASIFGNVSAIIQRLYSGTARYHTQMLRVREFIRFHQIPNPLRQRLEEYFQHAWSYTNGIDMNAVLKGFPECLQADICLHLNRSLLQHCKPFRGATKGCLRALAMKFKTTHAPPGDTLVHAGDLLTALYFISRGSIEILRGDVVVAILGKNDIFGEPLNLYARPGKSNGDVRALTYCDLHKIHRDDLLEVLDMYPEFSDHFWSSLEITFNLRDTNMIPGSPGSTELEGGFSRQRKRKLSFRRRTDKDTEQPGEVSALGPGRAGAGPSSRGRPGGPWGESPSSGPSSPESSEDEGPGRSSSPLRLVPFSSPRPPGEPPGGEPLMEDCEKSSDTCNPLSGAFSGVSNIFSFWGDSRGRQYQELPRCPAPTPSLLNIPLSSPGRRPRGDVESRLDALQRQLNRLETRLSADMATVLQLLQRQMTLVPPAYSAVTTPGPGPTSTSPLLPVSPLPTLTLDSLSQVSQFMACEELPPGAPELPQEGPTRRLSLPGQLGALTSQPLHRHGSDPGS
Chain of Beta Lactamase (Q932Y6 whole entry): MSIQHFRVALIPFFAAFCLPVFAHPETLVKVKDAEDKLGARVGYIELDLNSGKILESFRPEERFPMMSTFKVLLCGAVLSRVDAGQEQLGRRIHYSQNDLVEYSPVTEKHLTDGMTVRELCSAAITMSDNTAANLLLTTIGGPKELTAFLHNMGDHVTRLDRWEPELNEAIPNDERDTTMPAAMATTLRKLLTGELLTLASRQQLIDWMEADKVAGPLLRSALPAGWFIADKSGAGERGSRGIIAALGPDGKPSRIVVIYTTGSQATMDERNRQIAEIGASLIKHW
Chain of Cytochrome P450 2C9 (P11712 whole entry): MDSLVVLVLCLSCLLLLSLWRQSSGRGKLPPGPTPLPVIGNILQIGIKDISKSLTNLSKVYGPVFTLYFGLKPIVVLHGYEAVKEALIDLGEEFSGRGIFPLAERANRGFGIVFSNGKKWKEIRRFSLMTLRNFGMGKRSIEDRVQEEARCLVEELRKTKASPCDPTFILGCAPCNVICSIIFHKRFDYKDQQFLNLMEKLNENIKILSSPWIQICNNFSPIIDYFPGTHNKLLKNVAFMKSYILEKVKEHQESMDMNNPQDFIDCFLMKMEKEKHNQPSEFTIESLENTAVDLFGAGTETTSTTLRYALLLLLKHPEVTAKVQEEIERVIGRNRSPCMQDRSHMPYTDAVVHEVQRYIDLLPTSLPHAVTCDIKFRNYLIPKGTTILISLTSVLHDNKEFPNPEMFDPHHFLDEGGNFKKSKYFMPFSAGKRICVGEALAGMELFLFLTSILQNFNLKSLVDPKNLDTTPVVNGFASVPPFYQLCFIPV
Chain of Cytochrome P450 2C19 (P33261 whole entry): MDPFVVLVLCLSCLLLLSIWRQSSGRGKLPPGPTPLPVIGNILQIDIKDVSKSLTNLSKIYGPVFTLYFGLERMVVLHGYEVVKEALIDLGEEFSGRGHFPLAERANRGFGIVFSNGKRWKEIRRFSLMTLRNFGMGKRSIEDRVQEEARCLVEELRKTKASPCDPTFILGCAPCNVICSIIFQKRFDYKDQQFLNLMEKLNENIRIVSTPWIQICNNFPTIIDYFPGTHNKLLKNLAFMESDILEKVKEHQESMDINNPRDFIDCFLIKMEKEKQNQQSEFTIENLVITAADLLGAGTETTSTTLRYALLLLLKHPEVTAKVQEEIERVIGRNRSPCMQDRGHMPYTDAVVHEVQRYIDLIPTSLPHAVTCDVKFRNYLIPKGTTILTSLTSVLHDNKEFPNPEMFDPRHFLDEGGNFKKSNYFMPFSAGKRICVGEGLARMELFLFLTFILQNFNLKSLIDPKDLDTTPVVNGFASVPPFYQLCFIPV
Chain of Cytochrome P450 3A4 (P08684 whole entry): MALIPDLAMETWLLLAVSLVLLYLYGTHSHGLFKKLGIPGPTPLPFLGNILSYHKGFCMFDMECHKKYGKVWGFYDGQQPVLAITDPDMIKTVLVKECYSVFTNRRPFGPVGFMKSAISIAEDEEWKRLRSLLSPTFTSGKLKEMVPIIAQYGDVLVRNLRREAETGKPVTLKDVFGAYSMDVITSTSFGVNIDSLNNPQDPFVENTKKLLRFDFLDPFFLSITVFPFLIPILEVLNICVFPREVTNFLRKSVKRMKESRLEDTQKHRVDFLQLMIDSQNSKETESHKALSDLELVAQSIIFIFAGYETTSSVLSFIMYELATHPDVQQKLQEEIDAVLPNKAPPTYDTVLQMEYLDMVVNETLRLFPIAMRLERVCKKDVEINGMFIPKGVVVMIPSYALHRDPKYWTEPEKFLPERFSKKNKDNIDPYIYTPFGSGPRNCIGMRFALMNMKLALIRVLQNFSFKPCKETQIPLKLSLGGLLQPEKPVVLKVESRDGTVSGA

CC(=O)N1CCN(c2ccc(NC(=O)c3ccc(C)cc3)cc2)CC1
AC50 (Cytochrome P450 2C9): 39.8 µM (inconclusive) | AC50 (Cytochrome P450 2C19): 15.8 µM (inconclusive) | AC50 (Cytochrome P450 3A4): inconclusive

CCn1c(=O)c([N+](=O)[O-])c(Cl)c2ccccc21
EC50 [1]: 1.89 µM (active) | IC50 (CHO): 1.03 µM (active) | AC50 [2]: 7.21 µM (active) | EC50 (Beta-galactosidase): > 40 µM (inactive) | IC50 [3]: 0.622 µM (active) | IC50 [4]: 2.22 µM (active) | EC50 [5]: 15 µM (active) | IC50 (Beta Lactamase): 28.6 µM (inactive) | AC50 [6]: 1.85 µM (active) | AC50 (INS1): 5.02 µM (active)

CCc1c(C)sc(NC(=O)C2CC2c2ccccc2)c1C(N)=O (centres undefined)
CC50 (Vero [7]): > 25 µM (active) | IC50 (Vero [8]): 3.57 µM (active)

Cc1csc2nc(=O)c3ccccc3n12
AC50 (CAAX prenyl protease 2): 63 µM (active)

CC(C)C[C@H](N)CSSC[C@@H](N)CC(C)C
AC50 [9]: 35.5 µM (inconclusive)

OC(COc1ccc(CNCCc2ccc(C(F)(F)F)cc2)cc1)CN1CCCCC1 (centres undefined)
EC50 [1]: 1.26 µM (active) | CC50 (Vero [7]): 16.4 µM (active) | EC50 [5]: 5.08 µM (active) | IC50 (Vero [8]): 8.76 µM (active)

CS(=O)(=O)Nc1ccccc1C(=O)NCc1ccccc1Cl
IC50 [10]: > 47.1 µM (inactive) | EC50 [11]: > 53 µM (inactive) | AC50 (CAAX prenyl protease 2): 12.8 µM (active)

CC(COc1ccc(/C=C/c2ccccc2)cc1)[N+](C)(C)C (centres undefined)
AC50 [9]: 22.4 µM (inconclusive)

CC(=O)c1cccc(CN2CCCC(N3CCN(c4ccccc4F)CC3)C2)c1 (centres undefined)
AC50 [12]: 49.9 µM (active)

COc1ccc(C(=O)CNc2cccc(F)c2)cc1
EC50 (Beta-galactosidase): > 40 µM (inactive) | IC50 [4]: 28 µM (not active)

Cc1ccc(C)c2nc3sc(C(=O)N4CCCc5ccccc54)c(N)c3cc12
EC50 [1]: 1.56 µM (active) | EC50 [11]: 8.83 µM (active) | EC50 (Beta-galactosidase): > 40 µM (inactive) | IC50 [4]: > 40 µM (not active) | EC50 [5]: > 60 µM (not active)

Cc1sc2ncnc(NC3CCN(Cc4ccccc4)CC3)c2c1C
IC50 [13]: > 80 µM (inactive) | EC50 [1]: 1.78 µM (active) | AC50 [14]: 1.02 µM (active) | AC50 [15]: 2.61 µM (active) | IC50 [16]: 0.316 µM (active) | IC50 [17]: 0.411 µM (active) | EC50 [5]: > 60 µM (not active) | AC50 [18]: 3.41 µM (active) | EC50 [19]: 0.0467 µM (active) | AC50 (INS1): 2.88 µM (active)

CC1CCN(C(=O)Cn2cnc3c2c(=O)n(C)c(=O)n3C)c2ccccc2S1 (centres undefined)
AC50 [12]: 87.7 µM (active)
